We go through 16 compounds from ChEMBL document CHEMBL4359892, “Discovery of novel indolylarylsulfones as potent HIV-1 NNRTIs via structure-guided scaffold morphing” (Eur J Med Chem, 2019).

pEC50: −log10 of the molar value.

By pEC50 is commonly meant the negative decadic logarithm of the EC50, by convention in mol/L. As a reminder, the CC50 is the concentration giving 50% cytotoxicity.

For series [1], the system named is Human immunodeficiency virus 1. The series can be described thus: Antiviral activity against drug resistant HIV-1 harboring reverse transcriptase L100I mutant infected in human MT4 cells assessed as reduction in virus-induced cytopathic effect incubated for 5 days by MTT assay. The format is functional, organism-based. Conditions: Human immunodeficiency virus 1, MT4, 120 h. On the technique in general: Protection from cytopathic effect is a common read-out in antiviral testing.

The subject of series [2] is Human immunodeficiency virus 1. Put plainly: Antiviral activity against drug resistant HIV-1 harboring reverse transcriptase K103N mutant infected in human MT4 cells assessed as reduction in virus-induced cytopathic effect incubated for 5 days by MTT assay. The format is functional, organism-based. The settings on record: Human immunodeficiency virus 1, MT4, 120 h.
Series [3] deals with Human immunodeficiency virus 1. The series can be described thus: Antiviral activity against drug resistant HIV-1 RES056 harboring reverse transcriptase K103N/Y181C double mutant infected in human MT4 cells assessed as reduction in virus-induced cytopathic effect incubated for 5 days by MTT assay. The class given is functional, organism-based. Conditions: Human immunodeficiency virus 1, RES056, MT4, 120 h.

A short description of series [4]: Cytotoxicity against human MT4 cells assessed as reduction in cell viability incubated for 5 days by MTT assay. The format is cell-based. Background: Tetrazolium dyes change colour on reduction, which living cells bring about.
Series [5] in a line: Selectivity index, ratio of CC50 for human MT4 cells to EC50 for antiviral activity against HIV IIIB. The settings on record: read-out: Ratio CC50/EC50. The class given is toxicity.
Series [6] relates to Human immunodeficiency virus 1. Put plainly: Antiviral activity against drug resistant HIV-1 harboring reverse transcriptase Y188L mutant infected in human MT4 cells assessed as reduction in virus-induced cytopathic effect incubated for 5 days by MTT assay. The class given is functional, organism-based. The settings on record: Human immunodeficiency virus 1, MT4, 120 h.
Series [7] has as its system Human immunodeficiency virus 1. The series can be described thus: Antiviral activity against drug resistant HIV-1 harboring reverse transcriptase Y181C mutant infected in human MT4 cells assessed as reduction in virus-induced cytopathic effect incubated for 5 days by MTT assay. The format is functional, organism-based. Conditions: Human immunodeficiency virus 1, MT4, 120 h.

Series [8] concerns Human immunodeficiency virus 1. Put plainly: Antiviral activity against drug resistant HIV-1 harboring reverse transcriptase F227L/V106A double mutant infected in human MT4 cells assessed as reduction in virus-induced cytopathic effect incubated for 5 days by MTT assay. The format is functional, organism-based. The settings on record: Human immunodeficiency virus 1, MT4, 120 h.

For series [9], the system named is Human immunodeficiency virus 1. The series can be described thus: Antiviral activity against drug resistant HIV-1 harboring reverse transcriptase E138K mutant infected in human MT4 cells assessed as reduction in virus-induced cytopathic effect incubated for 5 days by MTT assay. Conditions: Human immunodeficiency virus 1, MT4, 120 h. The class given is functional, organism-based.

Series [10] concerns Human immunodeficiency virus 1. Put plainly: Antiviral activity against HIV-1 3B infected in human MT4 cells assessed as reduction in virus-induced cytopathic effect incubated for 5 days by MTT assay. The format is functional, organism-based. The settings on record: Human immunodeficiency virus 1, 3B, MT4, 120 h.
The nature of series [11]: Selectivity index, ratio of CC50 for human MT4 cells to EC50 for antiviral activity against HIV RES056. Conditions: read-out: Ratio CC50/EC50. The format is toxicity.

Consider `CCS(=O)(=O)NC(=O)c1[nH]c2ccc(Cl)cc2c1S(=O)(=O)c1cc(C)cc(C)c1`, for which the pEC50 in [1] is 5.36; in series [2], 4.99; in series [3], less than 3.55; in series [6] it was less than 3.55; in [7], 4.89; in series [8], 4.95. Moreover, the values for the negative logarithm of the EC50 (pEC50) in series [9] and in [10] were 6.23 and 5.53, respectively. In addition, in series [4], the half-maximal cytotoxic concentration (CC50) at 120 h is more than 284 µM. Also, the selectivity ratio in [5] was more than 96.
Take `Cc1cc(C)cc(S(=O)(=O)c2c(C(=O)NS(=O)(=O)c3ccc(F)cc3)[nH]c3ccc(Cl)cc23)c1`: the selectivity ratio is less than 1 in series [11] and more than 86 in series [5]. Further, the negative logarithm of the EC50 (pEC50) was 5.00 in [1]; 4.67 in [2]; less than 3.60 in series [3]; less than 3.60 in series [6]; 4.34 in series [7]; 4.41 in series [8]. Moreover, the values for the pEC50 in series [9] and in series [10] were 5.42 and 5.53, respectively. For the same compound, the cytotoxic concentration (CC50) at 120 h in series [4] is more than 253 µM.
Take `Cc1cc(C)cc(S(=O)(=O)c2c(C(=O)NS(=O)(=O)c3ccc(F)cc3F)[nH]c3ccc(Cl)cc23)c1`: the selectivity ratio is less than 1 in [11] and 37 in series [5]. Besides, the pEC50 in series [1] is 5.05; in [2] it was 4.82; in series [3], less than 3.92; in series [6], less than 3.92; in [7], less than 3.92; in [8] it was 4.52. Besides, the pEC50 was 5.39 in series [9] and 5.49 in series [10]. The half-maximal cytotoxic concentration (CC50) at 120 h in [4] was found to be 121 µM.
As to `Cc1cn([C@H]2C[C@H](N=[N+]=[N-])[C@@H](CO)O2)c(=O)[nH]c1=O` [ZIDOVUDINE], the selectivity ratio in series [11] is more than 645; in series [5] it was more than 714. For the same compound, the pEC50 in [1] is 8.31; in series [2], 7.92; in series [3], less than 4.55; in [6], 8.12; in series [7] it was 8.10; in series [8], 8.31. The results for the pEC50 in series [9] and in series [10] were 7.92 and 8.00, respectively. The CC50 at 120 h in [4] is more than 7.49 µM.
Regarding `CCOP(=O)(CCNC(=O)c1[nH]c2ccc(Cl)cc2c1S(=O)(=O)c1cc(C)cc(C)c1)OCC`, the selectivity ratio in series [11] is less than 1; in series [5] it was 100. The negative logarithm of the EC50 (pEC50) in series [1] was 5.17; in series [2] it was 5.46; in series [3] it was less than 3.88; in series [6] it was less than 3.88; in series [7], 5.17; in series [8], 5.14. Moreover, the negative-log EC50 (pEC50) is 5.92 in series [9] and 5.88 in series [10]. The 50% cytotoxic concentration (CC50) at 120 h in [4] worked out at 131 µM.
Regarding `CCCS(=O)(=O)NC(=O)c1[nH]c2ccc(Cl)cc2c1S(=O)(=O)c1cc(C)cc(C)c1`, the selectivity ratio is less than 1 in series [11] and 61 in series [5]. The pEC50 in series [1] is 4.96; in series [2], 4.76; in series [3] it was less than 3.84; in series [6], less than 3.84; in series [7], 4.53; in series [8], 4.69. Further, the results for the negative-log EC50 (pEC50) in series [9] and in [10] were 6.37 and 5.62, respectively. Besides, the CC50 at 120 h in [4] stood at 146 µM.
Turning to `Cc1cc(C)cc(S(=O)(=O)c2c(C(=O)NS(=O)(=O)C3CC3)[nH]c3ccc(Cl)cc23)c1`, the figures for the selectivity ratio in series [11] and in [5] were less than 1 and 57, respectively. Besides, the negative logarithm of the EC50 (pEC50) in series [1] is 5.09; in series [2], 4.92; in series [3], less than 3.83; in series [6], less than 3.83; in series [7], 4.73; in [8], 4.93. In addition, the pEC50 is 6.48 in [9] and 5.59 in series [10]. In addition, the CC50 at 120 h in series [4] turned out to be 147 µM.
With `O=C1Nc2ccc(Cl)cc2[C@@](C#CC2CC2)(C(F)(F)F)O1` [EFAVIRENZ], the pEC50 in series [3] is 6.59; in series [6] it was 6.57; in series [7], 8.08; in series [8], 6.60; in series [10], 8.07. Also, the cytotoxic concentration (CC50) at 120 h in series [4] is more than 6.35 µM.
For the compound `Cc1cc(C)cc(S(=O)(=O)c2c(C(=O)NS(=O)(=O)C(F)(F)F)[nH]c3ccc(Cl)cc23)c1`, the selectivity ratio in [11] is less than 1; in series [5], 393. Besides, the negative logarithm of the EC50 (pEC50) in series [1] is 5.85; in series [2] it was 5.61; in series [3] it was less than 3.85; in [6] it was less than 3.85; in series [7], 5.26; in series [8], 5.45. The results for the pEC50 in [9] and in series [10] were 6.04 and 6.44, respectively. The CC50 at 120 h in [4] came to 141 µM.
Turning to `Cc1cc(C)cc(S(=O)(=O)c2c(C(=O)NC3CNC3)[nH]c3ccc(Cl)cc23)c1`, the selectivity ratio in [11] is less than 1; in [5], 495. For the same compound, the values for the pEC50 in series [3] and in series [10] were not above 4.43 and 7.13, respectively. The CC50 at 120 h in [4] is 37.3 µM.
Take `Cc1cc(C)cc(S(=O)(=O)c2c(C(=O)NC3CN(Cc4ccccc4C#N)C3)[nH]c3ccc(Cl)cc23)c1`: the figures for the selectivity ratio in series [11] and in [5] were more than 4 and more than 18700, respectively. The values for the pEC50 in [3] and in series [10] were 4.17 and 7.89, respectively. In addition, the CC50 at 120 h in series [4] is more than 235 µM.
On to `Cc1cc(C)cc(S(=O)(=O)c2c(C(=O)N[C@H]3CCNC3)[nH]c3ccc(Cl)cc23)c1`, for which the results for the selectivity ratio in series [11] and in series [5] were less than 1 and 473, respectively. Besides, the pEC50 in series [3] is not above 5.00; in series [10], 7.68. The half-maximal cytotoxic concentration (CC50) at 120 h in [4] was found to be 10 µM.
Take `Nc1ccn([C@@H]2CS[C@H](CO)O2)c(=O)n1` [LAMIVUDINE]: the selectivity ratio in [11] was more than 16. In addition, the pEC50 in [1] is 5.50; in series [2], 5.43; in series [3], 5.26; in series [6], 5.35; in [7], 5.34; in [8], 5.72. In addition, the pEC50 in series [9] is 5.45; in [10], 5.41. For the same compound, the CC50 at 120 h in series [4] was more than 87.2 µM.
Take `Cc1cc(C)cc(S(=O)(=O)c2c(C(=O)NC3CN(CC(N)=O)C3)[nH]c3ccc(Cl)cc23)c1`: the selectivity ratio was less than 1 in series [11] and 1940 in series [5]. The negative-log EC50 (pEC50) was less than 4.59 in series [3] and 7.89 in series [10]. In series [4], the half-maximal cytotoxic concentration (CC50) at 120 h was 25.5 µM.
In the case of `Cc1ccnc2c1NC(=O)c1cccnc1N2C1CC1` [NEVIRAPINE], the negative-log EC50 (pEC50) in series [1] is 5.91; in [2], 5.14; in series [3], less than 4.82; in [6], less than 4.82; in series [7], less than 4.82; in series [8], less than 4.82. Also, the results for the pEC50 in series [9] and in series [10] were 6.74 and 6.42, respectively. In series [4], the CC50 at 120 h is more than 15 µM.
`Cc1cc(C)cc(S(=O)(=O)c2c(C(=O)NC3CN(Cc4ccccc4F)C3)[nH]c3ccc(Cl)cc23)c1`: the values for the selectivity ratio in series [11] and in [5] were more than 4 and more than 7810, respectively. The pEC50 in series [3] was 4.19; in [10], 7.52. In series [4], the half-maximal cytotoxic concentration (CC50) at 120 h is more than 238 µM.
